Results taken from ChEMBL document CHEMBL1201862, “PubChem BioAssay data set” (2004).
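A five-concentration, 48-hour dose response in 96-well plates underlies each endpoint, interpolated linearly between surrounding concentrations. GI50 = concentration required for 50% inhibition of growth.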 The source made the active and inactive calls. No stated cut-off is given here; in the data, active = GI50 up to about 1.1 µM and inactive = higher.

Columns and labels:
Experiment in all cases: NCI tumour cell line growth inhibition, 48 h
SF-268 = test system: SF-268
SR = test system: SR
IGROV-1 = test system: IGROV-1
MDA-MB-231 = test system: MDA-MB-231
U-251 = test system: U-251
786-0 = test system: 786-0
SK-OV-3 = test system: SK-OV-3
M14 = test system: M14
LOX IMVI = test system: LOX IMVI
RXF 393 = test system: RXF 393
NCI-H460 = test system: NCI-H460
K562 = test system: K562
SK-MEL-28 = test system: SK-MEL-28
KM12 = test system: KM12
CCRF-CEM = test system: CCRF-CEM
HOP-92 = test system: HOP-92
HT-29 = test system: HT-29
SK-MEL-5 = test system: SK-MEL-5
SK-MEL-2 = test system: SK-MEL-2

Measured: GI50

[N-]=[N+]=Nc1cccc(-c2nnc(Cl)cc2O)c1
inactive: SF-268 > 100 µM | SR > 100 µM | IGROV-1 > 100 µM | MDA-MB-231 > 100 µM | U-251 > 100 µM | 786-0 > 100 µM | SK-OV-3 > 100 µM | M14 > 100 µM | LOX IMVI > 100 µM | RXF 393 > 100 µM | NCI-H460 > 100 µM | K562 > 100 µM | SK-MEL-28 > 100 µM | KM12 > 100 µM | CCRF-CEM > 100 µM | HOP-92 > 100 µM | HT-29 > 100 µM

N#CC(C(=O)c1cccnc1Cl)c1nc2cc(C(F)(F)F)ccc2s1 (stereo not drawn)
inactive: SF-268 64.9 µM | IGROV-1 > 100 µM | MDA-MB-231 54 µM | U-251 78.3 µM | 786-0 88.9 µM | SK-MEL-5 > 100 µM | SK-OV-3 62.7 µM | M14 50.8 µM | LOX IMVI 37.3 µM | RXF 393 42.3 µM | NCI-H460 59.6 µM | K562 60.5 µM | SK-MEL-28 56.8 µM | KM12 58.9 µM | HOP-92 12.4 µM | HT-29 28.3 µM

CSc1nncc(-c2cc3c(c(SC)n2)CCC3)n1
inactive: SF-268 76 µM | SK-MEL-2 > 100 µM | IGROV-1 2.4 µM | MDA-MB-231 18.9 µM | U-251 25.9 µM | 786-0 79.6 µM | SK-MEL-5 > 100 µM | SK-OV-3 > 100 µM | M14 > 100 µM | RXF 393 > 100 µM | SK-MEL-28 > 100 µM | KM12 > 100 µM | CCRF-CEM > 100 µM | HT-29 > 100 µM

CC(C)(C)OC(=O)N1C[C@H](CC(=O)OCc2ccccc2)C[C@H]1C(=O)OCC(Cl)(Cl)Cl
inactive: SF-268 8.28 µM | SK-MEL-2 6.7 µM | SR 2.04 µM | MDA-MB-231 11.3 µM | U-251 2.56 µM | 786-0 5.96 µM | SK-MEL-5 2.24 µM | SK-OV-3 > 50 µM | M14 6.46 µM | LOX IMVI 4.97 µM | RXF 393 6.15 µM | NCI-H460 11.2 µM | K562 2 µM | SK-MEL-28 13.6 µM | KM12 2.76 µM | CCRF-CEM 1.35 µM | HOP-92 1.79 µM | HT-29 4.7 µM

Cc1cc(O)nc(NNC(C#N)c2c(O)ccc3ccccc23)n1 (stereo not drawn)
inactive: SF-268 2.28 µM | SK-MEL-2 12.2 µM | SR 2.7 µM | IGROV-1 3.4 µM | U-251 2.91 µM | 786-0 3.52 µM | SK-MEL-5 2.99 µM | SK-OV-3 7.08 µM | M14 2.51 µM | LOX IMVI 4.08 µM | RXF 393 10.4 µM | NCI-H460 2.89 µM | K562 3.68 µM | SK-MEL-28 5.18 µM | KM12 4.29 µM | CCRF-CEM 1.73 µM | HOP-92 19.1 µM | HT-29 17.3 µM

COc1ccc(C(=C[N+](=O)[O-])c2ccc(OC)cc2)cc1
inactive: SF-268 20 µM | SK-MEL-2 6.14 µM | SR 4.38 µM | IGROV-1 9.42 µM | U-251 11.3 µM | 786-0 20.8 µM | SK-MEL-5 28.6 µM | SK-OV-3 14.3 µM | M14 11.9 µM | LOX IMVI 9.44 µM | RXF 393 12.3 µM | NCI-H460 10.7 µM | K562 3.69 µM | SK-MEL-28 16.2 µM | KM12 4.5 µM | CCRF-CEM 10.1 µM | HOP-92 25.4 µM | HT-29 4.52 µM

O=C(O)Cc1ccc(Oc2nc3ccccc3nc2-c2ccccc2)cc1
inactive: SF-268 44.5 µM | SK-MEL-2 70 µM | SR 4.22 µM | IGROV-1 45.9 µM | MDA-MB-231 58.1 µM | U-251 56.2 µM | 786-0 > 100 µM | SK-MEL-5 59.6 µM | SK-OV-3 > 100 µM | M14 36.2 µM | LOX IMVI 60.3 µM | RXF 393 29.2 µM | NCI-H460 57.8 µM | K562 97.9 µM | SK-MEL-28 90.6 µM | KM12 60.5 µM | CCRF-CEM 61.4 µM | HT-29 61.9 µM

COc1cc2c(cc1OC)C1(c3ccccc3)ON=C(c3ccccc3)N1CS2 (stereo not drawn)
inactive: SF-268 > 100 µM | SK-MEL-2 > 100 µM | SR 23.6 µM | IGROV-1 > 100 µM | U-251 > 100 µM | 786-0 > 100 µM | SK-MEL-5 > 100 µM | SK-OV-3 > 100 µM | M14 46 µM | LOX IMVI > 100 µM | RXF 393 63 µM | NCI-H460 > 100 µM | K562 52.7 µM | SK-MEL-28 > 100 µM | KM12 > 100 µM | CCRF-CEM 39.3 µM | HOP-92 39.4 µM | HT-29 55.2 µM

CC(=O)NC(NCCN)(c1ccccc1)c1ccccc1
inactive: SF-268 > 100 µM | SR > 100 µM | MDA-MB-231 > 100 µM | U-251 > 100 µM | 786-0 > 100 µM | SK-MEL-5 > 100 µM | SK-OV-3 > 100 µM | M14 > 100 µM | LOX IMVI > 100 µM | RXF 393 > 100 µM | NCI-H460 > 100 µM | K562 > 100 µM | SK-MEL-28 > 100 µM | KM12 > 100 µM | CCRF-CEM > 100 µM | HOP-92 16.9 µM | HT-29 > 100 µM

CCOC(=O)C1=C(Nc2ccccc2)SC/C1=N\NC(=O)Cc1ccccc1
inactive: SF-268 > 100 µM | SK-MEL-2 > 100 µM | SR > 100 µM | IGROV-1 > 100 µM | U-251 > 100 µM | 786-0 > 100 µM | SK-MEL-5 > 100 µM | SK-OV-3 > 100 µM | M14 > 100 µM | LOX IMVI > 100 µM | RXF 393 > 100 µM | NCI-H460 > 100 µM | K562 > 100 µM | SK-MEL-28 > 100 µM | KM12 > 100 µM | CCRF-CEM > 100 µM | HOP-92 > 100 µM | HT-29 > 100 µM

Cc1cc2occ(C)c(=O)c2c2c1OC(C)(C)S2
inactive: SF-268 > 100 µM | SK-MEL-2 > 100 µM | SR 65.9 µM | IGROV-1 > 100 µM | U-251 > 100 µM | 786-0 > 100 µM | SK-MEL-5 > 100 µM | SK-OV-3 > 100 µM | M14 > 100 µM | LOX IMVI > 100 µM | RXF 393 88.1 µM | NCI-H460 > 100 µM | K562 51.9 µM | SK-MEL-28 > 100 µM | KM12 > 100 µM | CCRF-CEM 51.1 µM | HOP-92 55.3 µM | HT-29 97.9 µM

Nc1ccc(S(=O)(=O)Nc2nnc(S(N)(=O)=O)s2)cc1
inactive: SF-268 > 100 µM | SR > 100 µM | MDA-MB-231 > 100 µM | U-251 > 100 µM | 786-0 > 100 µM | SK-OV-3 > 100 µM | M14 > 100 µM | LOX IMVI > 100 µM | RXF 393 > 100 µM | NCI-H460 > 100 µM | KM12 > 100 µM | HOP-92 34.5 µM | HT-29 > 100 µM
